Reference: publication PMC11784145, “Efficacy and in vitro pharmacological assessment of novel N-hydroxypyridinediones as hepatitis B virus ribonuclease H inhibitors” (Antimicrobial Agents and Chemotherapy, 2024)
Several values for one entry are separate records, joined by “and”; a condition that tells them apart may be missing. Equal entries are not always repeated.

Assays:
Microsome stability = type: in vitro ADME, human; settings: human liver microsomes; for Clearance (intrinsic clearance, Clint) / Half-life: 1 µM compound, 30 min, NADPH
[1] = test system: primary human hepatocytes (PHHs); assay: Primary human hepatocyte cytotoxicity (MTS assay); type: cell-based; settings: 72 h, highest concentration tested 100 µM, mean ± SD, read-out: PHH CC50
Description: PHH cytotoxicity was determined by MTS assays following 72 h compound exposure, as described in Woodson et al. ([27]).

CYP3A4 mRNA expression = assay: CYP3A4 induction, RT-qPCR in HepG2 cells; settings: 10 µM, 24 or 48 h, normalized to GAPDH and DMSO
Description: HepG2 cells were seeded on 12-well, tissue-culture-treated plates (Sarstedt) at 2.5 × 10^5 cells/well for 24 h. Cells were treated with 10 µM compound or 1% DMSO for 48 h with replenishment at 24 h. Cells were rinsed with PBS and lysed at 0, 24, and 48 h using TRI Reagent (Sigma Aldrich). […] Cellular DNA was degraded using DNase I (Invitrogen), according to the manufacturer’s instructions.
Complementary DNA (cDNA) synthesis employed the ProtoScript II First Strand cDNA Synthesis Kit (New England Biolabs) according to the manufacturer’s instructions with an additional incubation step at 25°C for 5 min. Reverse transcriptase-qPCR (RT-qPCR) was performed using a Quantstudio 5 (Thermo Fisher) in a final reaction volume of 20 µL with 4 µL cDNA template, 2× KAPA probe force master mix (Roche), 300 nM probe, and 100 nM forward and reverse primer. CYP3A4 expression was determined by normalizing the experimental sample cycle threshold values to DMSO-treated wells. GAPDH was used as a housekeeping gene.

CYP2D6 = biological target: T1, CYP2D6 (Homo sapiens, UniProt P10635); assay: Cytochrome P450 inhibition, Vivid 2D6 EOMCC Blue kit; type: in vitro ADME; settings: for IC50: dose-response 50 µM to 3 nM, mean ± SD
T1 construct: purchased Thermo Fisher Vivid 2D6 EOMCC Blue
Description: Compound inhibition of Cytochrome P (CYP) 3A4, 2C9, and 2D6 was determined using Vivid CYP450 screening kits (Thermo Fisher) according to the manufacturer’s instructions, as described previously ([27]). The kits employed were: Vivid 3A4 DBOMF Green, 2C9 BOMF Green, and 2D6 EOMCC Blue. Reactions were initiated by addition of the fluorophore-conjugated substrates with Vivid NADP^+ and were conducted at 37°C using either a Biotek Synergy HTX multi-mode plate reader with 485/20 nm excitation and 520/20 nm emission filters (green-fluorescent substrate), or a Tecan Spark plate reader with monochromator settings at 415/20 nm excitation and 460/20 nm emission (blue-fluorescent substrate) defined by the Center Wavelength/band-pass values. Substrate cleavage was detected every 60 s.
Compounds were initially screened against each enzyme at 10 µM and maximum rates of fluorescence in RFU were calculated using the Biotek Gen5 v3.11 software. Percent inhibition of experimental compound reactions was normalized to the rate to DMSO vehicle reactions. Positive controls used were: CYP3A4—ketoconazole (Sigma Aldrich), CYP2C9—sulfaphenazole (Cayman Chemical), and CYP2D6—quinidine (Fisher Scientific). Dose-response curves were generated for compounds that inhibited an enzyme by ≥50% using titrated concentrations of compound (50 µM to 3 nM) or 1% DMSO. IC50 values were determined using the four-parameter log[inhibitor] versus response algorithm in GraphPad Prism. Qualitative screens and dose-response curves were each performed in triplicate on different days.

[2] = test system: HBV plus-polarity DNA in hepDES19 cells; assay: Effect of plasma proteins on compound potency; type: cell-based, hepatitis B virus; settings: 10 µM compound, 72 h, media with BSA to 40 mg/mL versus 10% FBS (0.25 mg/mL BSA)
Description: HBV plus-polarity DNA suppression was assessed in hepDES19 cells following compound treatment for 72 h. Cells incubated with compound (10 µM) in either normal tissue culture media conditions containing 10% FBS, or in media supplemented with bovine serum albumin (BSA) to 40 mg/mL. Percent inhibition was determined, as described previously ([27], [28]). The presence of increased BSA levels was determined to affect compound potency if there was a statistically significant decrease in percent HBV plus polarity DNA suppression when compared to cells treated with compound in normal media conditions. Three or more replicate assays were performed on separate days.

T1 sequence (P10635 whole entry): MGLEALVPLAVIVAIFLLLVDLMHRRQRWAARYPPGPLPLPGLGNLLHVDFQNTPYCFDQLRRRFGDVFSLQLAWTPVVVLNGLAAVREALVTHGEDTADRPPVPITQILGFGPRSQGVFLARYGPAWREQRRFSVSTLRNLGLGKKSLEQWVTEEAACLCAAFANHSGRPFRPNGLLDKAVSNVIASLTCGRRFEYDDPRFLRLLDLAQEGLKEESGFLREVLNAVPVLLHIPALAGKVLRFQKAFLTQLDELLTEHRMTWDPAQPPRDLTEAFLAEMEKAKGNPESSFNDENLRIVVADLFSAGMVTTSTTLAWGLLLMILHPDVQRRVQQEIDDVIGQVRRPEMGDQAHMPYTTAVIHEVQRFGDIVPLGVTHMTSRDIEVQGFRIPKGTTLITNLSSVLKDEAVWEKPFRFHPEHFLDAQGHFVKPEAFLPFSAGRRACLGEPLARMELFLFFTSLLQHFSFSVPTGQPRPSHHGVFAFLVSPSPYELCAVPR

Row | Compound | Intrinsic clearance (Clint) rate category (Microsome stability) | Clearance (intrinsic clearance, Clint) (Microsome stability) [µL/min/mg] | Half-life (Microsome stability) [min] | CC50 [1] [µM] | CYP3A4 mRNA expression increase (CYP3A4 mRNA expression) [fold] | Selectivity index for CYP (CYP2D6) inhibition versus HBV EC50 (CYP2D6) | IC50 (CYP2D6) [µM] | Effect of increased albumin on HBV plus polarity DNA suppression [2]
1 | CC(=NOCc1cccc(F)c1)c1c(C)cc(=O)n(O)c1O [Compound 1618] | low (low Clint (µL/min/mg protein) rates (<8.6)) | 5.71 | >30 | 93.8 ± 10.7 | < 2 | > 150 and 166 | 10.2 ± 4.1 | –
2 | CC(=NOCc1ccc(F)c(F)c1)c1c(C)cc(=O)n(O)c1O [Compound 1617] | medium (medium Clint rates (≥ 8.6 and ≤47)) | 45.7 | 23.0 | – | – | – | 4.46 | physiologically relevant
